Patent publication US6548550B1, “Pharmaceutical compositions containing N-palmitoylethanolamide and use thereof in the veterinary field” (Innovet Italia S.r.l., priority 2002, dated 2003)
Like-named read-outs stand apart in the source and are kept apart here.

What was measured:
[1] = tested on: eosinophilic skin condition in cats; conditions: for SIGNS plaque-granuloma-miliary scabs % improved / SIGNS plaque-granuloma-miliary scabs % unchanged / SIGNS plaque-granuloma-miliary scabs % worsened / SYMPTOMS pruritis-erythema-alopecia % improved / SYMPTOMS pruritis-erythema-alopecia % unchanged / SYMPTOMS pruritis-erythema-alopecia % worsened: cats
Description: Included in the investigation were 15 cats of European race with short hair, of which 9 were female and 6 were male, with ages of between 7 and 123 months. […] A numerical evaluation relating to the intensity and location of the signs and symptoms was assigned to each individual animal in accordance with the P.A.S.I. (psoriasis area severity index) “score” (Marks R. et al., 1989, Arch. Dermatol., 125:235-240). The improvements in the clinical signs and in the associated lesions were evaluated on the 15th and 30th days of treatment. The treatment consisted of a preparation in accordance with Example 3 of the pharmaceutical preparations given below, containing 120 mg of micronized N-palmitoylethanolamide. The active ingredient was administered in a proportion of 10 mg/kg/die for 30 days.

[2] = Particle size analysis of micronized PEA (Mastersizer); format: physicochemical
Description: The micronization of PEA and its co-micronization with excipients were performed with compressed-air turbine micronizing apparatus. This apparatus is known and is not therefore described in greater detail. The product obtained was subjected to analysis of the particles with Mastersizer, μ version apparatus from Malvern Instruments Co. UK.

CCCCCCCCCCCCCCCC(=O)NCCO [PEA, N-palmitoylethanolamide]
side effects compared with cortisones ([1]; in vivo): does not have the serious side effects typical of these drugs
quantity % of particles <6μ ([2]; particle size <6μ): 80%
quantity % of particles <10μ ([2]; particle size <10μ): ~96% approx.
quantity % of particles >14μ ([2]; particle size >14μ): traces

CCCCCCCCCCCCCCCC(=O)NCCO [non-micronized PEA, N-palmitoylethanolamide]
SIGNS plaque-granuloma-miliary scabs % improved ([1]; T15 (15th day of treatment)): 14.6%
SIGNS plaque-granuloma-miliary scabs % unchanged ([1]; T15 (15th day of treatment)): 85.4%
SIGNS plaque-granuloma-miliary scabs % worsened ([1]; T15 (15th day of treatment)): 0%
SYMPTOMS pruritis-erythema-alopecia % improved ([1]; T15 (15th day of treatment)): 8.2%
SYMPTOMS pruritis-erythema-alopecia % unchanged ([1]; T15 (15th day of treatment)): 91.8%
SYMPTOMS pruritis-erythema-alopecia % worsened ([1]; T15 (15th day of treatment)): 0%
SIGNS plaque-granuloma-miliary scabs % improved ([1]; T30 (30th day of treatment)): 51.4%
SIGNS plaque-granuloma-miliary scabs % unchanged ([1]; T30 (30th day of treatment)): 48.6%
SIGNS plaque-granuloma-miliary scabs % worsened ([1]; T30 (30th day of treatment)): 0%
SYMPTOMS pruritis-erythema-alopecia % improved ([1]; T30 (30th day of treatment)): 52%
SYMPTOMS pruritis-erythema-alopecia % unchanged ([1]; T30 (30th day of treatment)): 48%
SYMPTOMS pruritis-erythema-alopecia % worsened ([1]; T30 (30th day of treatment)): 0%
